What all share (assay type): cell-based, human
The subject of assay [1] is J82 bladder carcinoma cells. The experiment in a line: Antiproliferative assay (MTT reduction), J82 bladder carcinoma cells. The settings on record: for IC50: Homo sapiens, 72 h, J82 bladder carcinoma, 3 days treatment, MTT reduction, mean ± SD, >100 µM considered inactive; for antiproliferative activity against J82 (in words): up to 100 µM. The method, then: (§1) All human cell lines used in this work were purchased from the American Type Culture Collection (ATCC, Manasas, VA, USA). […] Promyelocytic leukemia HL-60 cells (CCL-240) were grown in suspension in RPM1 medium containing 1 mM sodium pyruvate and 2.0 g/L sodium bicarbonate. All media were supplemented with 10% heat-inactivated FBS, 100 IU/mL penicillin and 100 µg/mL streptomycin. Cells were grown in a humidified incubator with 5% CO2 in air at 37 °C. For the antiproliferative assay, adherent cells were plated at a density of 5 × 10^4 cells/mL and HL-60 cells at 30 × 10^4 cells/mL. Cells were seeded in 96-well plates (100 µL/well). One day after seeding, cells were treated with medium containing the compounds at concentrations ranging from 0 up to 100 µM during 3 days. The compounds were dissolved in DMSO (1% final concentration) and complete medium. Untreated cells (medium containing 1% DMSO) were used as 100% viability controls. […] Each concentration was tested in sextuplicate and experiments were repeated 2 times. Cell viability was determined by means of the MTT reduction assay at the end of the incubation with the products.

A further assay concerns HL-60 cells. The experiment in a line: Antiproliferative assay (MTT reduction), HL-60 promyelocytic leukemia cells. The following applies: for IC50: Homo sapiens, 72 h, HL-60 promyelocytic leukemia, 3 days treatment, MTT reduction, mean ± SD, >100 µM considered inactive; for antiproliferative activity against HL-60 (in words): up to 100 µM. The protocol:
as §1
(In general: Tetrazolium dyes change colour on reduction, which living cells bring about.)

A further assay deals with AGS cells. The experiment in a line: Antiproliferative assay (MTT reduction), AGS gastric adenocarcinoma cells. The following applies: for IC50: Homo sapiens, 72 h, AGS gastric adenocarcinoma, 3 days treatment, MTT reduction, mean ± SD, >100 µM considered inactive; for antiproliferative activity against AGS (in words): up to 100 µM. The method, then:
The compounds 1–20 were assessed for antiproliferative effect towards human lung fibroblasts (MRC-5) and the following human tumor cell lines: gastric adenocarcinoma (AGS), lung cancer cells (SK-MES-1), bladder carcinoma (J82) and promyelocytic leukemia (HL-60).
All human cell lines used in this work were purchased from the American Type Culture Collection (ATCC, Manasas, VA, USA). Normal lung MRC-5 fibroblasts (CCL-171), SK-MES-1 lung cancer cells (HTB-58) and J82 bladder carcinoma cells (HTB-1) were grown as monolayers in minimum essential Eagle medium (MEM) with Earles’s salts, 2 mM L-glutamine and 1.5 g/L sodium bicarbonate. Gastric adenocarcinoma AGS cells (CRL-1739) were grown as monolayers in Ham F-12 medium containing 1 mM L-glutamine and 1.5 g/L sodium bicarbonate. Promyelocytic leukemia HL-60 cells (CCL-240) were grown in suspension in RPM1 medium containing 1 mM sodium pyruvate and 2.0 g/L sodium bicarbonate. All media were supplemented with 10% heat-inactivated FBS, 100 IU/mL penicillin and 100 µg/mL streptomycin. Cells were grown in a humidified incubator with 5% CO2 in air at 37 °C. For the antiproliferative assay, adherent cells were plated at a density of 5 × 10^4 cells/mL and HL-60 cells at 30 × 10^4 cells/mL. Cells were seeded in 96-well plates (100 µL/well). One day after seeding, cells were treated with medium containing the compounds at concentrations ranging from 0 up to 100 µM during 3 days. The compounds were dissolved in DMSO (1% final concentration) and complete medium. Untreated cells (medium containing 1% DMSO) were used as 100% viability controls. […] Each concentration was tested in sextuplicate and experiments were repeated 2 times. Cell viability was determined by means of the MTT reduction assay at the end of the incubation with the products. The results were transformed to percentage of controls and the IC50 values were graphically obtained from the dose-response curves.

Another assay deals with MRC-5 normal fibroblasts. The experiment in a line: Antiproliferative assay (MTT reduction), MRC-5 normal lung fibroblasts. The settings on record: for IC50: Homo sapiens, MRC5, 72 h, MRC-5 normal fibroblasts, 3 days treatment, MTT reduction, mean ± SD, >100 µM considered inactive; for antiproliferative activity against MRC-5 (in words): up to 100 µM. The protocol:
as §1

The test system of assay [2] is SK-MES-1 lung cancer cells. The experiment in a line: Antiproliferative assay (MTT reduction), SK-MES-1 lung cancer cells. The following applies: for IC50: Homo sapiens, 72 h, SK-MES-1 lung cancer cells, 3 days treatment, MTT reduction, mean ± SD, >100 µM considered inactive; for antiproliferative activity against SK-MES-1 (in words): up to 100 µM. The protocol:
as §1

Consider `C=C1CCC2[C@](C)(CCC[C@]2(C)C(=O)OC)[C@H]1CC[C@@H](C)CCn1cc(CO)nn1` (stereo partly shown) [Compound 4, 15-(4-(Hydroxymethyl)-1H-1,2,3-triazol-1-yl)-imbricatolic acid methyl ester], for which the half-inhibitory concentration (IC50) in assay [1] is 60.7 ± 4.6 µM; with HL-60 cells it was more than 100 µM; in the assay with AGS cells it was 41.5 ± 2.1 µM; in the assay on MRC-5 normal fibroblasts, 77.4 ± 3.9 µM; in assay [2], 67.7 ± 3.1 µM.
For the compound `C=C1CCC2[C@](C)(CCC[C@]2(C)C(=O)OC)[C@H]1CC[C@@H](C)CCOC(=O)CCC(=O)OCC[C@H](C)CC[C@H]1C(=C)CCC2[C@]1(C)CCC[C@]2(C)C(=O)OC` (stereo partly shown) [Compound 13], the IC50 was 72.1 ± 4.3 µM in assay [1]; 60.8 ± 4.2 µM in the assay with HL-60 cells; 62.9 ± 3.9 µM in the assay on AGS cells; 76.8 ± 5.4 µM in the assay with MRC-5 normal fibroblasts; 68.2 ± 4.5 µM in assay [2].
For `C=C1CCC2[C@](C)(CCC[C@]2(C)C(=O)O)[C@H]1CC[C@@H](C)CC(=O)OCCc1cn(CC[C@H](C)CC[C@H]2C(=C)CCC3[C@]2(C)CCC[C@]3(C)C(=O)OC)nn1` (stereo partly shown) [Compound 17] the same measures were 34.6 ± 2.5 µM, 23.2 ± 3.1 µM, 23.4 ± 1.4 µM, 79.6 ± 5.1 µM and 67.5 ± 4.9 µM.
Turning to `C=C1CCC2[C@](C)(CCC[C@]2(C)C(=O)OC)[C@H]1CC[C@@H](C)CCOCCCCOCC[C@H](C)CC[C@H]1C(=C)CCC2[C@]1(C)CCC[C@]2(C)C(=O)OC` (stereo partly shown) [Compound 8], the IC50 is more than 100 µM in assay [1]; 57.8 ± 4.1 µM in the assay on HL-60 cells; 70.3 ± 6.3 µM in the assay with AGS cells; more than 100 µM with MRC-5 normal fibroblasts; more than 100 µM in assay [2].
As to `C=C1CCC2[C@](C)(CCC[C@]2(C)C(=O)OC)[C@H]1CC[C@@H](C)CCOC(=O)C[C@H](C)CC[C@H]1C(=C)CCC2[C@]1(C)CCC[C@]2(C)C(=O)OC` (stereo partly shown) [Compound 12], in assay [1], the half-inhibitory concentration (IC50) came out at 61.4 ± 3.1 µM and the “antiproliferative activity against J82 (in words)” value was “showed effect”. In the assay with HL-60 cells, the “antiproliferative activity against HL-60 (in words)” value is listed as “devoid of activity” and the IC50 was more than 100 µM. Moreover, in the assay with AGS cells, the “antiproliferative activity against AGS (in words)” value is given as “devoid of activity” and the IC50 is more than 100 µM. In the assay on MRC-5 normal fibroblasts, the IC50 was more than 100 µM and the “antiproliferative activity against MRC-5 (in words)” value was “devoid of activity”. Also, in assay [2], the IC50 is 38.5 ± 2.8 µM and the “antiproliferative activity against SK-MES-1 (in words)” value was “showed effect”.
For `C=C1CCC2[C@](C)(CCC[C@]2(C)C(=O)O)[C@H]1CC[C@@H](C)CC(=O)OCC[C@H](C)CC[C@H]1C(=C)CCC2[C@]1(C)CCC[C@]2(C)C(=O)OC` (stereo partly shown) [Compound 11], in assay [1], the concentration for half-maximal inhibition (IC50) was more than 100 µM; the “antiproliferative activity against J82 (in words)” value was “not against SK-MES-1 and J82 cells”. Further, in the assay on HL-60 cells, the “antiproliferative activity against HL-60 (in words)” value is “showed activity” and 80.3 ± 5.9 µM corresponded to half-maximal inhibition (IC50). Also, in the assay on AGS cells, the “antiproliferative activity against AGS (in words)” value is recorded as “showed activity” and the IC50 was 26.1 ± 2.2 µM. In addition, in the assay on MRC-5 normal fibroblasts, the 50% inhibitory concentration (IC50) amounted to 71.2 ± 5.3 µM and the “antiproliferative activity against MRC-5 (in words)” value is “showed activity”. For the same compound, in assay [2], the IC50 was more than 100 µM; the “antiproliferative activity against SK-MES-1 (in words)” value is “not against SK-MES-1 and J82 cells”.
Take `C=C1CCC2[C@](C)(CCC[C@]2(C)C(=O)OC)[C@H]1CC[C@@H](C)CCn1cc(CCO)nn1` (stereo partly shown) [Compound 5, 15-(4-(2-Hydroxyethyl)-1H-1,2,3-triazol-1-yl)-imbricatolic acid methyl ester]: the half-inhibitory concentration (IC50) worked out at 56.2 ± 3.9 µM in assay [1]; 48.9 ± 4.5 µM in the assay with HL-60 cells; 54.8 ± 3.3 µM with AGS cells; 75.8 ± 5.3 µM in the assay with MRC-5 normal fibroblasts; 57.2 ± 3.4 µM in assay [2].
Compound `COc1cc([C@@H]2c3cc4c(cc3[C@@H](O[C@@H]3O[C@@H]5CO[C@@H](C)O[C@H]5[C@H](O)[C@H]3O)[C@H]3COC(=O)[C@H]23)OCO4)cc(OC)c1O` [Etoposide, reference compound] gave an IC50 in the assay on AGS cells of 0.58 ± 0.02 µM.

As a reminder, the IC50 is the concentration needed to halve the response being measured. A high value points to lower potency.

The values above are taken from publication PMC6270601, “Dimeric Labdane Diterpenes: Synthesis and Antiproliferative Effects” (Molecules, 2013).
